Test results published in PubChem BioAssay (NCI).
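1) Cells in 96-well plates. 2) Compound, 48 h, 5 concentrations. 3) Linear interpolation between surrounding doses. 4) Unreached endpoint = highest concentration. TGI marks complete inhibition of growth.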

test system: SR leukemia; assay: inhibition of tumour cell growth, NCI panel, 48 h

SMILES | TGI
COc1ccc2oc(=N)c(C(=O)Nc3ccccc3)cc2c1 | > 100 µM
O=c1onc2n1-c1cc(Cl)ccc1C(=S)N1CSCC21 (stereo not given) | > 100 µM
OC(C#CCN1CCCC1)(c1ccccc1)c1ccccc1Cl (stereo not given) | > 100 µM
C=C1C(=O)[C@@]23CC[C@@H]4[C@@]5(C)CCC[C@@]4(OC5=O)[C@@]2(C)CC[C@@H]1C3 | > 100 µM
Cn1ncc2c(NCc3ccccc3)ncnc21 | > 100 µM
CN1CCN(Cc2cc3c(nn2)-c2ccccc2C3=O)CC1 | > 100 µM
COc1cccc2c1OC(c1cccc3ccccc13)C([N+](=O)[O-])=C2 (stereo not given) | > 100 µM
CN(C)Cc1cc(C(=O)/C=C/c2ccc([N+](=O)[O-])cc2)cc(CN(C)C)c1O | 22.2 µM
O=C(NN1C(=O)CS(=O)(=O)C1c1ccc(C(F)(F)F)cc1)c1ccncc1 (stereo not given) | > 100 µM
Cn1c2ccccc2c2c(=S)c3ccccc3ccc21 | > 100 µM
CCOc1c(OC)cc(-c2nc3n(n2)C(=O)C(CC)S3)cc1OC (stereo not given) | > 10 µM
O=C1C(=Nc2ccc(Nc3ccccc3)cc2)Oc2ccccc21 | 4.71 µM
CC(C)C1=CC23CCC4C(C)(C(=O)O)CCCC4(C)C2CC1C1C(=O)N(CCCCCCN2C(=O)C4C5CC6C7(C)CCCC(C)(C(=O)O)C7CCC6(C=C5C(C)C)C4C2=O)C(=O)C13 (stereo not given) | 34.1 µM

test system: U251 CNS; assay: inhibition of tumour cell growth, NCI panel, 48 h

SMILES | TGI
C=CC1(C)CC(=O)C2(O)C(C)(O1)C(OC(C)=O)C(O)C1C(C)(C)CCC(O)C12C (stereo not given) | > 94.6 µM
Cc1cc(N(C)C)c2ccccc2[n+]1CCCCCCCCCC[n+]1c(C)cc(N(C)C)c2ccccc21 | 11.5 µM
CN1Cc2c(nc(-c3ccccc3)c[n+]2[O-])N(C)C1 | > 100 µM
C=C(CN(C)C)C(=O)c1ccc(C(=O)C(=C)CN(C)C)cc1 | > 100 µM
COc1cc(Nc2ccc3c(c2)CCC3)nc(OC)n1 | > 100 µM
CNc1[nH]c(=S)nc2sc3c(c12)CCCC3 | > 75 µM
N#Cc1sc2c(c1OC(=O)c1ccc(C(F)(F)F)cc1)c(=O)n(-c1ccccc1)c(=S)n2-c1ccccc1 | 97 µM
Cc1c2c(c(C)n1-c1ccccc1)C(=O)N(CCN1CCN(c3cccc(C(F)(F)F)c3)CC1)C2=O | > 100 µM
O[C@H]1[C@H](O)[C@@H](O)CN2CC[C@H](O)[C@H]12 | > 100 µM
COc1cc(O)c2c(=O)c(OC)c(-c3ccc(OC)c(O)c3)oc2c1 | > 100 µM
Clc1sc(Cl)c2c1[C@@H](Cl)C[C@@H]2Br | > 100 µM
O=C(OCC(Cl)(Cl)Cl)N1CC[C@H](C2CCCCC2)C1 | 13.6 µM
Clc1ccc(C=NC23CC4CC(CC(C4)C2)C3)c(Cl)c1 | > 10 µM
c1ccc(C(C(=Nc2ccc(Cc3ccc(N=C(C(c4ccccc4)c4ccccc4)N4CC4)cc3)cc2)N2CC2)c2ccccc2)cc1 | 30.9 µM
C=C(C)CNCCN | > 100 µM
Cc1ccnc(NC(=S)Nc2ccc([N+](=O)[O-])cc2)c1 | > 100 µM
O=C(CN1C(=O)CC(c2ccccc2)(c2ccccc2)C1=O)N1CCN(CCO)CC1 | > 100 µM
COc1ccc2oc(=N)c(C(=O)Nc3ccccc3)cc2c1 | 55.1 µM
O=C1c2cccc3cccc(c23)C(=O)N1CCCNCCCCNCCCNCCCN1C(=O)c2cccc3cccc(c23)C1=O | 1.73 µM

SMILES | TGI
C=C(C)[C@H]1C2=CC(C(=O)OC)=C(C[C@H](C(=C)C)[C@@H](O)[C@@H](O)C3=C[C@H]1OC3=O)O2 | > 100 µM
O=c1onc2n1-c1cc(Cl)ccc1C(=S)N1CSCC21 (stereo not given) | > 100 µM
OC(C#CCN1CCCC1)(c1ccccc1)c1ccccc1Cl (stereo not given) | 35.2 µM
CSc1nc2c(c(N(C)C)n1)C(O)n1c(nc3ccccc31)S2 (stereo not given) | > 55.5 µM
O=C1NC(O)CCN1C1OC(CO)C(O)C1O (stereo not given) | > 169 µM
COc1ccc(-c2nc3ccccc3c(=S)n2OC(C)=O)cc1 | > 25 µM
C=C1C(=O)[C@@]23CC[C@@H]4[C@@]5(C)CCC[C@@]4(OC5=O)[C@@]2(C)CC[C@@H]1C3 | 7.05 µM
Cn1ncc2c(NCc3ccccc3)ncnc21 | > 100 µM
CCCCOCCOC1=C(Cl)C(=O)c2c(O)ccc(O)c2C1=O | 3.55 µM
N#CC(c1ccccc1)N(CCOCCOCCN(C(=O)c1ccccc1)C(C#N)c1ccccc1)C(=O)c1ccccc1 (stereo not given) | > 100 µM
CN1CCN(Cc2cc3c(nn2)-c2ccccc2C3=O)CC1 | > 100 µM
COc1cccc2c1OC(c1cccc3ccccc13)C([N+](=O)[O-])=C2 (stereo not given) | 2.9 µM
CN(C)Cc1cc(C(=O)/C=C/c2ccc([N+](=O)[O-])cc2)cc(CN(C)C)c1O | 14.9 µM
O=C(NN1C(=O)CS(=O)(=O)C1c1ccc(C(F)(F)F)cc1)c1ccncc1 (stereo not given) | > 100 µM
Cn1c2ccccc2c2c(=S)c3ccccc3ccc21 | > 100 µM
CCOc1c(OC)cc(-c2nc3n(n2)C(=O)C(CC)S3)cc1OC (stereo not given) | > 10 µM
CC1OC(O[C@H]2C3C=CO[C@@H](OC4OC(CO)C(O)C(O)C4O)C3[C@@]3(COC(=O)/C=C/c4ccccc4)O[C@@H]23)C(O)C(O)C1O (stereo not given in full) | > 100 µM
O=C1C(=Nc2ccc(Nc3ccccc3)cc2)Oc2ccccc21 | 4.27 µM
